Source: paper PMC11651181, “Discovery of 6α-Thiazolylcarboxamidonaltrexamine Derivative (NTZ) as a Potent and Central Nervous System Penetrant Opioid Receptor Modulator with Drug-like Properties for Potential Treatment of Opioid Use Disorder” (ACS Pharmacology & Translational Science, 2024)
“Also recorded” adds a separate entry of the source. Structures can show the parent of a compound that is named as a salt. Where two headings read alike, the source gives them in different places.

Columns and labels:
[1] = In vivo BBB-penetration studies (LC-MS/MS of brain and plasma); parameters: species or system mouse; settings: 10 mg/kg s.c.; for Brain concentration / concentration at 5 min / concentration at 10 min / concentration at 30 min: n = 3, mean ± SD; for concentration at 5 min / concentration at 10 min / concentration at 30 min: subcutaneous
Experimental: Swiss Webster mice (three mice each time point) were administered compound 6 (10 mg/kg, s.c.) or vehicle. At 5-, 10-, and 30 min time points post administration, the mice were euthanized by decapitation, and blood and brain samples were collected. Blood samples were centrifuged at 15,000 g for 10 min at 4 °C to isolate plasma. Brains were washed twice with saline before harvesting and stored in saline until homogenization. Both brain and plasma samples were kept at −80 °C until further analysis.
Compound 6 was identified and quantified in mouse plasma and brain using a modified version of a previously established method, with naloxone-d5 as the internal standard.[20] In brief, compound 6 was extracted from both blood and brain using naloxone-d5 as the internal standard (ISTD) by a liquid/liquid extraction. Before extraction, brain tissue samples were homogenized at a ratio of one-part tissue to three-parts water. Seven-point calibration curves (10–1000 ng/mL or ng/g) were prepared for in plasma, and included drug free control, negative control (lacking internal standard, ISTD) for plasma and brain, and quality control samples in plasma and brain (30, 300, and 750 ng/mL or ng/g). […], used as the internal standard, was added at a concentration of 10 ng/mL to either 100 μL of blood or 400 μL for brain homogenate to each calibrator, control, or sample, excluding the negative control. To these samples 0.5 mL of saturated carbonate/bicarbonate buffer (1:1, pH 9.5) and 2.0 mL of chloroform: isopropanol (8:2) were added. The mixtures were vortexed, centrifuged and the top aqueous layer was removed. The organic layer was transferred to a clean test tube and evaporated to dryness under nitrogen. The residues were reconstituted in 80:20 methanol: water and transferred to autosampler vials for analysis. Chromatographic separation of compound 6 and naltrexone-d5 was performed using a Shimadzu Nexera X2 liquid chromatography system with a Zorbax XDB-C18 4.6 × 75 mm, 3.5-μm column (Agilent Technologies, Santa Clara, CA). The mobile phase consisted of water with 1 g/L ammonium formate and 0.1% formic acid (Phase A) and methanol (Phase B). The flow rate was maintained at 1 mL/min. The gradient started at 20% B, increased to 80% within 1 min, and was held for 1.5 min before returning to the initial conditions. Detection was carried out using a Sciex 6500 QTRAP system with an IonDrive Turbo V source for TurbolonSpray (Sciex, Ontario, Canada). The curtain gas flow rate set to 30 mL/min while the ion source gases 1 and 2 were set to 60 mL/min. The source temperature was maintained at 650 °C and the ionspray voltage was set at 5500 V. The declustering potential was […]. The following quantification and qualifying transition ions were monitored in positive multiple reaction monitoring (MRM) mode with collisions energies in parentheses: compound 6 455> 437 (26), 455 > 268 & (41); naloxone-d5 333> 212 (45), &333 > 315 (25). Retention times of compound 6 and naloxone-d5 were 1.81 and 1.69 min, respectively. The total run time was 4 min. Compound 6 concentration was determined by linear regression plot based on peak area ratios of the calibrators.

[2] = In vitro metabolic stability in Sprague-Dawley rat liver microsomes; assay type: in vitro ADME; settings: 1.0E-07 M; for % Compound Remaining, mean: rat liver microsomes
Experimental: (§1) The ADMET assessment including the hERG inhibitory activity, plasma protein binding, in vitro metabolic stability profile, CYP inhibitory effect and mutagenic evaluation were conducted by Eurofins Panlabs, Inc.[21],[61],[69]−[71]

MOR = biological target: T1, MOR (Mus musculus, UniProt P42866); test: MOR calcium flux assay in Gαqi5-transfected mMOR-CHO cells; assay type: cell-based
T1 construct: expressed in transfected cells; host or cells: CHO (MOR-CHO), membrane preparation
T1 sequence (P42866 whole entry): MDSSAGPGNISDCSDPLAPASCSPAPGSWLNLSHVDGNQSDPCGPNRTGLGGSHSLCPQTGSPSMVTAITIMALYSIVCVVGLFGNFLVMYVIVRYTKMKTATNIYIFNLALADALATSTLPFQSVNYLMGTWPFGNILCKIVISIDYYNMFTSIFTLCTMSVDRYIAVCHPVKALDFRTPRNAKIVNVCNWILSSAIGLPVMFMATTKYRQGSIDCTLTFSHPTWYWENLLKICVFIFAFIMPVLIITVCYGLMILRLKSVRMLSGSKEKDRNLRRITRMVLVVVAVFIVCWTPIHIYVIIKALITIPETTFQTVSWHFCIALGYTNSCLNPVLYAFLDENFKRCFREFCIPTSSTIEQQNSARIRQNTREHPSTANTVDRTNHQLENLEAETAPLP
Experimental: Ligands were initially tested at various concentrations (0.3 nM to 3 μM) for potential agonist activity in MOR-CHO cells. These cells were transfected with Gqi5 pcDNA1 using Lipofectamine 2000 (Invitrogen) following the manufacturer’s protocol. […] Peak values were obtained using SoftMaxPro software (Molecular Devices), and IC50 values were calculated by generating nonlinear regression curves using GraphPad Prism. Each dose was tested in triplicates, and the experiment was repeated at least four times to calculate standard errors.

CYP1A2 = biological target: T2, CYP1A2 (Homo sapiens, UniProt P05177); test: Cytochrome P450 inhibition assay, CYP1A2; assay type: in vitro ADME
T2 construct: Eurofins Panlabs, Inc. (contract laboratory)
T2 sequence (P05177 1-516): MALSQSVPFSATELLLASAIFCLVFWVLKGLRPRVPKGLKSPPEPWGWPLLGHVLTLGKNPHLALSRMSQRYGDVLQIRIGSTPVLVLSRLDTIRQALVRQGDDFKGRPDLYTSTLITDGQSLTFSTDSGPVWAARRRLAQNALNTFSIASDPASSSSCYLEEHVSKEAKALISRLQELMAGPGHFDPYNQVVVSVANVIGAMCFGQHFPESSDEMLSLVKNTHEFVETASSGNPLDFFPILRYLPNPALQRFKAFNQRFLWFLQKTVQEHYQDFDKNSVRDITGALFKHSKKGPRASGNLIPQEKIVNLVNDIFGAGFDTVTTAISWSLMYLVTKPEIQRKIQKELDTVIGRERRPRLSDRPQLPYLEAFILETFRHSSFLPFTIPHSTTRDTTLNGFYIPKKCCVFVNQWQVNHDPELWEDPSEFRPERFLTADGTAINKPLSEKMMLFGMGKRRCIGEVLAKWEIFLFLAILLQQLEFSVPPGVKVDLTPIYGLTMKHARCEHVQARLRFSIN
Experimental: as §1

[3] = Caco-2 permeability studies; assay type: in vitro ADME; settings: human, 1 h incubation
Experimental: Caco-2 cells (HTB-37) were cultured in T75 flasks using DMEM supplemented with 10% FBS, 1% glutamine, penicillin, and streptomycin at 37 °C and 5% CO2. Cells were passaged at 80–90% confluency and seeded into Millipore 96-well plates (25,000 cells/well) to form monolayers, with media changed every 2–3 days for 21 days until 100% confluency. Permeability studies involved adding 10 μM compound 6 to the apical (A) or basolateral (B) side and measuring permeation across the monolayer. Lucifer yellow dye (100 μM) was used in the A-side buffer as a control. Incubation lasted 1 h, and permeability was assessed using ranitidine/colchicine (low permeability) and labetalol/propranolol (high permeability) as controls. Samples were collected, quenched with methanol, centrifuged, and analyzed by HPLC-MS/MS to determine peak area ratios.
Data was expressed as [drawing 1] here VR is the volume of the receiver chamber. CR,end is the concentration of the test compound in the receiver chamber at the final time point, Δt denotes the incubation time, and A is the surface area of the cell monolayer. CD,mid is the average midpoint concentration of the test compound on the donor side, calculated as the mean of the donor concentrations at 0 min and at the end time point. […] Test compound concentrations were determined based on their peak areas.

[4] = Sprague-Dawley rat liver microsomes

## O=C(N[C@H]1CC[C@@]2(O)[C@H]3Cc4ccc(O)c5c4[C@@]2(CCN3CC2CC2)[C@H]1O5)c1nccs1 [Compound 6, 17-Cyclopropylmethyl-3,14β-dihydroxy-4,5α-epoxy-6α-(2′-thiazolylcarboxamido)-morphinan hydrochloride]
[1]
  Decrease in the plasma levels over 30 min: 33%
[1]; 5 min
  Brain concentration: 0.187 ± 0.07 µg/g
[1]; 10 min
  Brain concentration: 0.235 ± 0.06 µg/g
[1]; 30 min
  Brain concentration: 0.264 ± 0.05 µg/g
[1]; Swiss Webster, mouse, brain and plasma, sc, 5 min, read-out: Brain-to-Plasma ratio
  Kp at 5 min: 0.102
[1]; Swiss Webster, mouse, brain and plasma, sc, 10 min, read-out: Brain-to-Plasma ratio
  Kp at 10 min: 0.173
[1]; Swiss Webster, mouse, brain and plasma, sc, 30 min, read-out: Brain-to-Plasma ratio
  Kp at 0.5 h: 0.217
[1]; Swiss Webster, mouse, brain, 5 min, read-out: Brain concentration
  concentration at 5 min: 187 ng/g
[1]; Swiss Webster, mouse, brain, 10 min, read-out: Brain concentration
  concentration at 10 min: 235 ng/g
[1]; Swiss Webster, mouse, brain, 30 min, read-out: Brain concentration
  concentration at 30 min: 264 ng/g
[1]; Swiss Webster, mouse, plasma, 5 min, read-out: Plasma concentration
  concentration at 5 min: 1820 ± 280 ng/mL
[1]; Swiss Webster, mouse, plasma, 10 min, read-out: Plasma concentration
  concentration at 10 min: 1360 ± 210 ng/mL
[1]; Swiss Webster, mouse, plasma, 30 min, read-out: Plasma concentration
  concentration at 30 min: 1220 ± 330 ng/mL
[2]; [4]
  half-life at 100 nM: > 1 h
  microsomal CLint at 100 nM: < 38.5 µL/min/mg
[2]; 15 min
  % Compound Remaining, mean: 106%
[2]; 30 min
  % Compound Remaining, mean: 115%
[2]; 45 min
  % Compound Remaining, mean: 103%
[2]; 60 min
  % Compound Remaining, mean: 105%
MOR
  IC50: 5.64 ± 0.24 nM
MOR; compared to full MOR agonist DAMGO
  Agonistic activity in increasing intracellular calcium, in words: no apparent agonism; also recorded: none of them showed any significant agonistic activity
CYP1A2; 1.0E-05 M
  inhibition at 10 µM: 7.4%
CYP1A2; 1.0E-07 M
  inhibition at 100 nM: 11.4%
[3]
  Papp A→B at 1 h, 10 μM: 13.1 ×10⁻⁶ cm/s
  Papp B→A at 1 h, 10 μM: 33.2 ×10⁻⁶ cm/s
